Reference: ChEMBL document CHEMBL4715697, “Synthesis and biological activity of benzamide DNA minor groove binders” (2016)

Legend:
Type in all cases: functional
HT-29 [1] = test: Growth inhibition of human HT-29 cells assessed as cell growth at 0.01 uM incubated for 48 hrs by sulforhodamine B assay relative to control; settings: read-out: Activity
KM12 = test: Growth inhibition of human KM12 cells assessed as cell growth at 0.01 uM incubated for 48 hrs by sulforhodamine B assay relative to control; settings: read-out: Activity
SF-295 [2] = test: Growth inhibition of human SF-295 cells assessed as cell growth at 0.01 uM incubated for 48 hrs by sulforhodamine B assay relative to control; settings: read-out: Activity
SK-MEL-2 = test: Growth inhibition of human SK-MEL-2 cells assessed as cell growth at 0.01 uM incubated for 48 hrs by sulforhodamine B assay relative to control; settings: read-out: Activity
SK-MEL-5 [3] = test: Growth inhibition of human SK-MEL-5 cells assessed as cell growth at 0.01 uM incubated for 48 hrs by sulforhodamine B assay relative to control; settings: read-out: Activity
UACC-257 = test: Growth inhibition of human UACC-257 cells assessed as cell growth at 0.01 uM incubated for 48 hrs by sulforhodamine B assay relative to control; settings: read-out: Activity
Hs-578T [4] = test: Growth inhibition of human Hs-578T cells assessed as cell growth at 0.01 uM incubated for 48 hrs by sulforhodamine B assay relative to control; settings: read-out: Activity
MOLT-4 [5] = test: Growth inhibition of human MOLT-4 cells assessed as cell growth at 0.1 uM incubated for 48 hrs by sulforhodamine B assay relative to control; settings: read-out: Activity
HT-29 [6] = test: Growth inhibition of human HT-29 cells assessed as cell growth at 0.1 uM incubated for 48 hrs by sulforhodamine B assay relative to control; settings: read-out: Activity
SF-295 [7] = test: Growth inhibition of human SF-295 cells assessed as cell growth at 0.1 uM incubated for 48 hrs by sulforhodamine B assay relative to control; settings: read-out: Activity
Malme-3M = test: Growth inhibition of human Malme-3M cells assessed as cell growth at 0.1 uM incubated for 48 hrs by sulforhodamine B assay relative to control; settings: read-out: Activity
ACHN = test: Growth inhibition of human ACHN cells assessed as cell growth at 0.1 uM incubated for 48 hrs by sulforhodamine B assay relative to control; settings: read-out: Activity
MOLT-4 [8] = test: Growth inhibition of human MOLT-4 cells assessed as cell growth at 1 uM incubated for 48 hrs by sulforhodamine B assay relative to control; settings: read-out: Activity
NCI-H226 = test: Growth inhibition of human NCI-H226 cells assessed as cell growth at 1 uM incubated for 48 hrs by sulforhodamine B assay relative to control; settings: read-out: Activity
NCI-H23 [9] = test: Growth inhibition of human NCI-H23 cells assessed as cell growth at 1 uM incubated for 48 hrs by sulforhodamine B assay relative to control; settings: read-out: Activity
COLO 205 = test: Growth inhibition of human COLO 205 cells assessed as cell growth at 1 uM incubated for 48 hrs by sulforhodamine B assay relative to control; settings: read-out: Activity
HCC 2998 = test: Growth inhibition of human HCC 2998 cells assessed as cell growth at 1 uM incubated for 48 hrs by sulforhodamine B assay relative to control; settings: read-out: Activity
SW-620 [10] = test: Growth inhibition of human SW-620 cells assessed as cell growth at 1 uM incubated for 48 hrs by sulforhodamine B assay relative to control; settings: read-out: Activity
SK-MEL-5 [11] = test: Growth inhibition of human SK-MEL-5 cells assessed as cell growth at 1 uM incubated for 48 hrs by sulforhodamine B assay relative to control; settings: read-out: Activity
MCF7 [12] = test: Growth inhibition of human MCF7 cells assessed as cell growth at 1 uM incubated for 48 hrs by sulforhodamine B assay relative to control; settings: read-out: Activity
MDA-MB-231 = test: Growth inhibition of human MDA-MB-231 cells assessed as cell growth at 1 uM incubated for 48 hrs by sulforhodamine B assay relative to control; settings: read-out: Activity
Hs-578T [13] = test: Growth inhibition of human Hs-578T cells assessed as cell growth at 1 uM incubated for 48 hrs by sulforhodamine B assay relative to control; settings: read-out: Activity
K562 = test: Growth inhibition of human K562 cells assessed as cell growth at 100 uM incubated for 48 hrs by sulforhodamine B assay relative to control; settings: read-out: Activity
HCT-116 [14] = test: Growth inhibition of human HCT-116 cells assessed as cell growth at 100 uM incubated for 48 hrs by sulforhodamine B assay relative to control; settings: read-out: Activity
SNB-19 = test: Growth inhibition of human SNB-19 cells assessed as cell growth at 100 uM incubated for 48 hrs by sulforhodamine B assay relative to control; settings: read-out: Activity
M14 = test: Growth inhibition of human M14 cells assessed as cell growth at 100 uM incubated for 48 hrs by sulforhodamine B assay relative to control; settings: read-out: Activity
UACC-62 = test: Growth inhibition of human UACC-62 cells assessed as cell growth at 100 uM incubated for 48 hrs by sulforhodamine B assay relative to control; settings: read-out: Activity
A498 = test: Growth inhibition of human A498 cells assessed as cell growth at 100 uM incubated for 48 hrs by sulforhodamine B assay relative to control; settings: read-out: Activity
NCI-H23 [15] = test: Growth inhibition of human NCI-H23 cells incubated for 48 hrs by sulforhodamine B assay
HCT-116 [16] = test: Growth inhibition of human HCT-116 cells incubated for 48 hrs by sulforhodamine B assay
SW-620 [17] = test: Growth inhibition of human SW-620 cells incubated for 48 hrs by sulforhodamine B assay
NCI/ADR-RES = test: Growth inhibition of human NCI/ADR-RES cells incubated for 48 hrs by sulforhodamine B assay
TK-10 = test: Growth inhibition of human TK-10 cells incubated for 48 hrs by sulforhodamine B assay
MCF7 [18] = test: Growth inhibition of human MCF7 cells incubated for 48 hrs by sulforhodamine B assay
MDA-MB-468 = test: Growth inhibition of human MDA-MB-468 cells incubated for 48 hrs by sulforhodamine B assay
[19] = read-out: LC50 (the source's name)
[20] = read-out: pLC50 (the source's name) (converted)

`CC(=O)Nc1cc(CCl)cc(NC(=O)c2ccc(C(=O)Nc3cccc(NC(=O)CCCN(C)C)c3)cc2)c1` showed a growth at 0.01 µM (HT-29 [1]) of 103%, a growth at 0.01 µM (KM12) of 105% and a growth at 0.01 µM (SF-295 [2]) of 74%. For the same molecule, the growth at 0.01 µM (SK-MEL-2) was 107%, the growth at 0.01 µM (SK-MEL-5 [3]) was 96% and the growth at 0.01 µM (UACC-257) was 97%. For the same molecule, the growth at 0.01 µM (Hs-578T [4]) was 115%, the growth at 0.1 µM (MOLT-4 [5]) was 95% and the growth at 0.1 µM (HT-29 [6]) was 101%. It also gave a growth at 0.1 µM (SF-295 [7]) of 74%, a growth at 0.1 µM (Malme-3M) of 104% and a growth at 0.1 µM (ACHN) of 101%. The growth at 1 µM (MOLT-4 [8]) was 99%, the growth at 1 µM (NCI-H226) was 91% and the growth at 1 µM (NCI-H23 [9]) was 93%. For the same molecule, the growth at 1 µM (COLO 205) was 109%, the growth at 1 µM (HCC 2998) was 96% and the growth at 1 µM (SW-620 [10]) was 107%. For the same molecule, the growth at 1 µM (SK-MEL-5 [11]) was 93%, the growth at 1 µM (MCF7 [12]) was 81% and the growth at 1 µM (MDA-MB-231) was 104%. It also gave a growth at 1 µM (Hs-578T [13]) of 109%, a growth at 100 µM (K562) of 106% and a growth at 100 µM (HCT-116 [14]) of 82%. It also gave a growth at 100 µM (SNB-19) of 117%, a growth at 100 µM (M14) of 91% and a growth at 100 µM (UACC-62) of 84%. The growth at 100 µM (A498) was 62%, the GI50 (NCI-H23 [15]; read-out: GI50) was over 100 µM and the CC50 (NCI-H23 [15]; [19]) was over 100 µM. The TGI (NCI-H23 [15]; read-out: TGI) was over 100 µM, the GI50 (NCI-H23 [15]; read-out: pGI50 (converted)) was over 100 µM and the CC50 (NCI-H23 [15]; [20]) was over 100 µM. For the same molecule, the TGI (NCI-H23 [15]; read-out: pTGI) was over 100 µM, the GI50 (HCT-116 [16]; read-out: GI50) was over 100 µM and the CC50 (HCT-116 [16]; [19]) was over 100 µM. The TGI (HCT-116 [16]; read-out: TGI) was over 100 µM, the GI50 (HCT-116 [16]; read-out: pGI50 (converted)) was over 100 µM and the CC50 (HCT-116 [16]; [20]) was over 100 µM. It also gave a TGI (HCT-116 [16]; read-out: pTGI) of over 100 µM, a GI50 (SW-620 [17]; read-out: GI50) of over 100 µM and an LC50 (SW-620 [17]; read-out: LC50) of over 100 µM. For the same molecule, the TGI (SW-620 [17]; read-out: TGI) was over 100 µM, the GI50 (SW-620 [17]; read-out: pGI50 (converted)) was over 100 µM and the LC50 (SW-620 [17]; read-out: pLC50 (converted)) was over 100 µM. The TGI (SW-620 [17]; read-out: pTGI) was over 100 µM, the GI50 (NCI/ADR-RES; read-out: GI50) was over 100 µM and the CC50 (NCI/ADR-RES; [19]) was over 100 µM. The TGI (NCI/ADR-RES; read-out: TGI) was over 100 µM, the GI50 (NCI/ADR-RES; read-out: pGI50 (converted)) was over 100 µM and the CC50 (NCI/ADR-RES; [20]) was over 100 µM. It also gave a TGI (NCI/ADR-RES; read-out: pTGI) of over 100 µM, a GI50 (TK-10; read-out: GI50) of over 100 µM and a CC50 (TK-10; [19]) of over 100 µM. For the same molecule, the TGI (TK-10; read-out: TGI) was over 100 µM, the GI50 (TK-10; read-out: pGI50 (converted)) was over 100 µM and the CC50 (TK-10; [20]) was over 100 µM. It also gave a TGI (TK-10; read-out: pTGI) of over 100 µM, a GI50 (MCF7 [18]; read-out: GI50) of 30.1 µM and a CC50 (MCF7 [18]; [19]) of over 100 µM. For the same molecule, the TGI (MCF7 [18]; read-out: TGI) was over 100 µM, the GI50 (MCF7 [18]; read-out: pGI50 (converted)) was 30.2 µM and the CC50 (MCF7 [18]; [20]) was over 100 µM. The TGI (MCF7 [18]; read-out: pTGI) was over 100 µM, the GI50 (MDA-MB-468; read-out: GI50) was over 100 µM and the CC50 (MDA-MB-468; [19]) was over 100 µM. For the same molecule, the TGI (MDA-MB-468; read-out: TGI) was over 100 µM, the GI50 (MDA-MB-468; read-out: pGI50 (converted)) was over 100 µM and the CC50 (MDA-MB-468; [20]) was over 100 µM. For the same molecule, the TGI (MDA-MB-468; read-out: pTGI) was over 100 µM.
